Article PMC7114283 (Antiviral Research, 2010)
Where two headings read alike, the source gives them in different places. Marks after values point to notes of the source that are not given here.

Legend:
SARS CoV Urbani strain [1] = format: cell-based, human severe acute respiratory syndrome coronavirus
SARS CoV Urbani strain [2] = system: SARS CoV Urbani strain
Vero 76 cells [3] = system: Vero 76 cells
Vero 76 cells [4] = system: Vero 76 cells; remark: listed apart in the source
TGEV [5] = system: TGEV
TGEV 3CLpro = TGEV 3CLpro (Porcine transmissible gastroenteritis coronavirus, UniProt P0C6Y5); format: biochemical, transmissible gastroenteritis virus
Chain of TGEV 3CLpro (P0C6Y5 2879-3180 limits assumed): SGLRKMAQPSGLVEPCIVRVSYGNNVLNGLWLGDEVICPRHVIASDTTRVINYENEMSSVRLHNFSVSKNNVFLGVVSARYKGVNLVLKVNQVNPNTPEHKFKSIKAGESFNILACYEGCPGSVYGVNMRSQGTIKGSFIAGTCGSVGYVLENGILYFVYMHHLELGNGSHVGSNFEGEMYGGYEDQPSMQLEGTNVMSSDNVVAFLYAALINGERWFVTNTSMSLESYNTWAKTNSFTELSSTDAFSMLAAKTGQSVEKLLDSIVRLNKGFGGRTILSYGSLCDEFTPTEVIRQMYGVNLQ

SARS CoV 3CLpro = SARS CoV 3CLpro (Severe acute respiratory syndrome coronavirus, UniProt P0C6X7); format: biochemical
[6] = male, Sprague-Dawley, rat, in vivo, 3 mg/kg
in vivo = details: male, Sprague-Dawley, rat, 3 mg/kg
in vitro = details: swine
TGEV [7] = test: microbe, parasite or virus in culture; details: Alphacoronavirus 1

In the case of interferon alfacon-1 [Infergen™], the “Neutral red uptake assay EC50” value (SARS CoV Urbani strain [1]) is reported as 2.4 µg/mL, the “Visual assay EC50” value (SARS CoV Urbani strain [2]) is reported as <0.32 µg/mL and the “Visual assay SI (CC50/EC50)” value (SARS CoV Urbani strain [2]) is reported as >320. The “Visual assay CC50” value (Vero 76 cells [3]) was >100 µg/mL and the “Neutral red uptake assay CC50” value (Vero 76 cells [4]) was >130 µg/mL.

With “3,14a-dihydroxy-6,7-dimethoxyphenanthroindolizidine [Compound 1h]” the EC50 (TGEV [5]) was 18 ± 1 nM, the “SI (CC50/EC50)” value (TGEV [5]) was 1719 and the CC50 (ST cells) was 31600 nM.

In the case of `COc1cc2c3c(c4cc(OC)c(OC)cc4c2cc1OC)CN1CCC[C@@H]1C3` [Compound 1a, Tylophorine], the “Inhibition of TGEV 3CLpro enzymatic activity” value (TGEV 3CLpro) is reported as “did not significantly inhibit”, the “Inhibition of SARS CoV 3CLpro enzymatic activity” value (SARS CoV 3CLpro) is reported as “did not significantly inhibit” and the “SI (CC50/EC50)” value (TGEV [5]) is reported as >1715. For the same compound, the “Visual assay SI (CC50/EC50)” value (SARS CoV Urbani strain [2]) was 88, the Ctrough ([6]; iv) was 1.1 ng/mL and the “t1/2 (apparent elimination half-life)” value ([6]; iv) was 3.9 ^b h. It also gave a Ctrough ([6]; po) of 3.0 ng/mL, a bioavailability (in vivo) of 65.7% and an AUC(0-inf) (in vivo; iv) of 772 ng·h/mL. The clearance (in vivo; iv) was 66.8 mL/min/kg, the AUC(0-inf) (in vivo; po) was 507 ng·h/mL and the Cmax (in vivo; po) was 31.9 ng/mL. For the same compound, the Tmax (in vivo; po) was 1.8 h, the CC50 (in vitro) was > 100000 nM and the EC50 (TGEV [7]) was 58 ± 4 nM.

In the case of `COc1ccc2c3c(c4cc(OC)c(OC)cc4c2c1)CN1CCC[C@H]1[C@@H]3O` [Compound 1e, tylophorinine], the “SI (CC50/EC50)” value (TGEV [5]) is reported as >1220, the CC50 (in vitro) is reported as > 100000 nM and the EC50 (TGEV [7]) is reported as 82 ± 8 nM.

For `COc1cc2c3c(c4cc(OC)c(OC)cc4c2cc1OC)CN1CCC[C@@H]1C3` [1a′, tylophorine], the EC50 (TGEV [5]) was 95 ± 17 nM, the “SI (CC50/EC50)” value (TGEV [5]) was >1053 and the CC50 (ST cells; swine) was > 100000 nM.
